Results on 9 compounds are retold here after US7667036B2, “Pyrazolo[1,5-a]pyrimidine derivatives” (Teijin Pharma Limited, priority 2004, dated 2010).

pIC50: −log10 of the molar value. Bounds are passed on as bounds.

What is called pIC50 is the IC50 on a negative log10 scale, so that one unit is a factor of ten.

Experiment [1] has as its target T1, MAPKAP-K2 (Homo sapiens, UniProt P49137). Kind of experiment: MAPKAP-K2 enzyme activity inhibition assay, Method A (33P-ATP, P81 filter plate). In kind it is biochemical. Particulars: 10 μmol/L ATP, 30 μmol/L peptide KKLNRTLSVA, 3% DMSO, 30 min room temperature, read-out: Inhibitory activity (MAPKAP-K2 IC50 class). As for the experimental part:
(§1) The assay of inhibitory activity was performed according to Method A described below for Compound No. 1, 2, 3, 4, 20, 21, 22, 23, 24, 25, 26, 79, 80 and 81, and Method B described below for the other compounds.
A compound was dissolved in DMSO to make its concentration to 10 mmol/L, and further a part of the resulting solution was taken out and stored at −20° C. The stock solution was diluted with DMSO to prepare a stock solution having a 30-fold concentration of the required range. Subsequently the resultant stock solution was diluted to 1:3 to prepare a stock solution having a 10-fold concentration of the required range, and an aliquot of 5 μL of each solution was used for every reaction with 50 μL. During the continuous dilution of all compounds, the final DMSO concentration was maintained at 3% and the solubility of compounds was maximized. Compounds were routinely tested at a final concentration ranging from 300 μmol/L to 0.001 μmol/L, but were sometimes tested at a lower concentration depending upon their activity. (MAPKAP-K2 Enzyme Activity Assay)
The kinase reaction was carried out using a 96-well round-bottomed polypropylene microplate. MAPKAP-Kinase 2 was diluted to 0.5 mU/μL with diluent buffer (50 mmol/L Tris/HCl (pH7.5), 0.1 mmol/L EGTA, 0.1% (v/v) β-mercaptoethanol, and 1 mg/mL BSA). To each well was added 5 μL of a compound or 30% DMSO and subsequently 25 μL of substrate cocktail (final concentration: 10 μmol/L ATP, 30 μmol/L peptide (KKLNRTLSVA), 50 mmol/L 33P-γ-ATP/Tris solution of (pH 7.5, 0.5 μCi), 0.1 mmol/L EGTA, 10 mmol/L magnesium acetate and 0.1% β-mercaptoethanol). To each well was added 20 μL of an enzyme solution or 20 μL of a diluent buffer without contabing enzyme to initiate the reaction, After shaking the plate for 10 sec, it was fibber allowed to stand at room temperature for 30 min. The reaction was terminated with 50 μL of a 150 mmol/L phosphoric acid solution. Then, 90 μL of a reaction mixture solution was transferred to a 96-well P81 filter plate (Whatmann), and incubation was performed at room temperature for 5 min. Subsequently, the filter plate was washed 4 times with 200 μL of a 75 mmol/L phosphoric acid solution per well through a plate suction manifold (Millipore), followed by further drying in an oven for 2 to 3 hrs. Next, after adding Packard Microscint “0” (30 μL) to each well and shaking the plate for 30 min, scintillation measurement was performed using a Packard TopCount scintillation counter. […]

For experiment [2], the target named is T1, MAPKAP-K2. Description: MAPKAP-K2 enzyme activity inhibition assay, Method B (33P-ATP, MultiScreen-PH plate). In kind it is biochemical. Particulars: recombinant human MAPKAP-K2, 0.5% DMSO, 30 min room temperature, read-out: Inhibitory activity (MAPKAP-K2 IC50 class). As for the experimental part: as §1
A compound was dissolved in […] to make its concentration to 20 mmol/L, and the resultant solution was stored at −20° C. The stock solution was sequentially diluted with DMSO to prepare a solution having a 200-fold concentration of the required range. Further the solution was diluted with water to 1:20 to prepare a solution having a 10-fold concentration of the required range, and an aliquot of 5 μL of each solution was used for every reaction with 50 μL. During the continuous dilution of all compounds, the final DMSO concentration was maintained at 0.5%. Compounds were routinely tested at a final concentration ranging from 100 μmol/L to 0.03 μmol/L, but were sometimes tested at a lower concentration depending upon their activity.
The reaction was initiated by adding 25 μL of a peptide substrate solution [60 μmol/L substrate peptide, 20 μmol/L ATP, 50 mmol/L Tris buffer (pH 7.5), 0.1 mmol/L EGTA, 0.1% β-mercaptoetanol, 20 mmol/L magnesium acetate, and 0.1 μCi [γ-33P]ATP (specific radio activity: approximately 110 TBq/mmol)] to 5 μL of a 5% DMSO solution of the test compound and subsequently adding 20 μL of a MAPKAP-K2 enzyme solution [10 mU recombinant human MAPKAP-K2, 50 mmol/L Tris buffer (pH 7.5), 0.1 mmol/L EGTA, 0.1% β-mercaptoethanol, 0.1% BSA]. After performing the reaction for 30 min at room temperature, an equivalent volume of 200 mmol/L phosphoric acid solution was added to terminate the reaction. Subsequently, 90 μL of the reaction product was adsorbed on a MultiScreen-PH Plate (Millipore) and then rinsed with 100 mmol/L phosphoric acid solution. After drying the plate, 30 μL of MicroScint-O (Packard BioScience) was added, and further the count per minute was measured by a scintillation counter to determine the inhibitory activity. The substrate peptide was Lys-Lys-Leu-Asn-Arg-Tlr-Leu-Ser-Val-Ala.
• % Control=(X−B)/(Tot−B)×100 • % Inhibition=100—% Control • X=count per minute of a test compound well • B=count per minute of a well without containing enzyme • Tot=count per minute of a well with DMSO solvent only, without containing the test compound (MAPKAP-K2 inhibitory activity) • IC50 value=the compound concentration at 50% inhibition

T1 sequence (P49137 whole entry): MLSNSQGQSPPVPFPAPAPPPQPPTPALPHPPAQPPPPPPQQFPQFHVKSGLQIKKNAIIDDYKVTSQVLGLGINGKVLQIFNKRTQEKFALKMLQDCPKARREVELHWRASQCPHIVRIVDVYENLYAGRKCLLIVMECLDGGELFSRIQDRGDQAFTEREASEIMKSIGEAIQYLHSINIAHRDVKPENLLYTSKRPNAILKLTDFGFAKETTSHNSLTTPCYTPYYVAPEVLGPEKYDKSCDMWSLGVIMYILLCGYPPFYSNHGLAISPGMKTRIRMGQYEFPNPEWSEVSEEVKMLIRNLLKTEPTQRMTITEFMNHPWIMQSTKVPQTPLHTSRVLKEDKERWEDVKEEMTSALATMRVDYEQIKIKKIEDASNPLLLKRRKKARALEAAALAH

For the compound `C=CCC1CC(N)CCC1Oc1nc2ccnn2c(Nc2ccc(OCC)cc2)c1C` (stereo not drawn) [compound 25], the pIC50 at MAPKAP-K2 [1] is 4.70 to 5.70.

Turning to `C=CCC1CC(NC)CCC1Oc1nc2ccnn2c(Nc2ccc(OCC)cc2)c1C` (stereo not drawn) [compound 26], the pIC50 on MAPKAP-K2 [1] is 4.70 to 5.70.

Regarding `CCOc1ccc(Nc2c(C)c(SCCN)nc3ccnn23)cc1` [compound 81], the pIC50 at MAPKAP-K2 [1] is 4.70 to 5.70.

`CCOc1ccc(Nc2c(C)c(SC3CCCNC3)nc3ccnn23)cc1` (stereo not drawn) [compound 80]: at MAPKAP-K2 [1], the pIC50 is 4.70 to 5.70.

Take `Cc1c(O[C@H]2CC[C@@H](N)CC2)nc2ccnn2c1Nc1ccc(OCCN2CCOCC2)cc1` [compound 90]: on MAPKAP-K2 [2], the pIC50 was at least 5.70.

`CCOc1ccc(Nc2c(C)c(OCC3(N)CCCC3)nc3ccnn23)cc1` [compound 40]: at MAPKAP-K2 [2], the pIC50 was 4.00 to 4.70.

In the case of `CCOc1ccc(Nc2c(C)c(O[C@@H]3CC[C@@H](C)NC3)nc3ccnn23)cc1` [compound 17], the pIC50 at MAPKAP-K2 [2] was 4.70 to 5.70.

As for `CCOc1ccc(Nc2c(C)c(OCC(N)CC)nc3ccnn23)cc1` (stereo not drawn) [compound 36], the pIC50 at MAPKAP-K2 [2] was 4.00 to 4.70.

With `CSc1nc2ccc(Nc3c(C)c(OC4CCCNC4)nc4ccnn34)cc2s1` (stereo not drawn) [compound 45], the pIC50 on MAPKAP-K2 [2] is at least 5.70.
